# “Also recorded” adds a separate entry of the source.
# What was measured:
# human satellite cells = assay: Expansion of human satellite cells; type: cell-based
# satellite cells (SMPs) [1] = assay: Satellite cell (SMP) proliferation with or without bFGF, 300 cells/well; type: cell-based, mouse; settings: for additive or synergistic action with bFGF: compound plus bFGF versus bFGF alone (FIGS. 15-17, 28, 29)
# satellite cells [2] = assay: Satellite cell proliferation screen and dose response, image-based cell count; set-up: species or system mouse; settings: for activity on in vitro satellite cell proliferation (in words): screen hits tested in dose response / retest
# [3] = tested on: satellite cells from aged and young tissue; assay: Proliferation of satellite cells from aged and young mice; type: cell-based, mouse; settings: aged cells as well as young cells (FIGS. 24, 25)
# primary fibroblasts = assay: Specificity test on Sca1-positive fibroblasts (Ki67); type: cell-based, mouse; settings: primary fibroblasts (FIG. 23)
# myoblasts = assay: Myoblast differentiation in differentiation media (5% horse serum); type: cell-based; settings: differentiation media comprising 5% horse serum (FIG. 39)
# satellite cells (SMPs) [4] = assay: Differentiation of compound-treated SMPs into myotubes (myosin heavy chain staining); type: cell-based, mouse; settings: compound in proliferation conditions, then differentiation media
# Method: CAG-EGFP satellite cells were grown in the inventors' standard proliferation conditions and exposed to compounds for four days. Under the inventors' standard proliferation conditions cells were cultured on laminin-coated plates in Ham's F-10 medium supplemented with 10% heat inactivated horse serum, 100Units/mL penicillin/100 ug/mL streptomycin, and 2 mM L-glutamine. Compounds were added the day after plating. The compounds and media were either refreshed daily or after three days. To differentiate cells and form myotubes, after four days in proliferation conditions, media was switched to high-glucose DMEM supplemented with 10% heat inactivated horse serum, 10% fetal bovine serum, 0.5% chick embryo extract, 100Units/mL penicillin/100 ug/mL streptomycin, and 2 mM L-glutamine. Cultures were grown in differentiation media for 3-5 days until myotube formation was observed, then fixed. Cultures were then switched into differentiation media and cultured another four days. They were then fixed and stained with anti-myosin heavy chain (red channel) and Hoechst (blue channel).
# For these experiments, 300 cells were plated in each well at Day 0 in our standard proliferation media (10% horse serum in F-10). […]
# The inventors also assessed effects these compounds were having on the identity of the satellite cells and their ability to differentiate in culture. […]
# satellite cells [5] = assay: Satellite cell proliferation in combination with TGF-beta inhibitor (Alk5 inhibitor II); type: cell-based, mouse
# [6] = tested on: satellite cells from Tg:Pax7-nGFP mice; assay: LINCS library screen for satellite cell proliferation (Hoechst 33342 high content imaging); type: cell-based, mouse; settings: satellite cells cultured for 4 days, 96w plates
# Excerpt: This example includes a list of primary hits from a screen designed to identify compounds that promote satellite cell proliferation in vitro. The satellite cell is a skeletal muscle stem cell responsible for post-natal muscle growth and regeneration. […] The four compound libraries tested, LINCS 1, 2, 3 and 4, were provided to us by the Sorger lab at Harvard Medical School. The Sorger lab is a member of the LINCS (Library of Integrated Network-Based Cellular Signatures) Consortium, which is an NIH initiative aiming to generate public data to further research of therapeutically relevant cellular pathways. LINCS 1, 2, and 4 contain kinase inhibitors, while LINCS 3 contains epigenetic modifiers.
# FIG. 50 identifies small molecules that promote satellite cell proliferation screen in this Example. (A) Chemical screen experimental schematic outlining FACS isolation and compound library treatment of satellite cells. (B) Representative dose response curves from four of the top ten compounds. Top ten compounds were chosen based on highest fold change of cell proliferation relative to vehicle controls. Proliferation was assessed via high content imaging using Hoechst 33342 as a cell marker. (C) Representative fluorescent images of FACS sorted satellite cells from Tg:Pax7-nGFP mice on 96w plates cultured for 4 days and treated with vehicle, compound or positive control (Jak3 inhibitor 6). Optimal treatment concentration for each compound was determined in dose response; 3 uM for XMD8-92, 5 uM for SB23906, 800 nM for XMD11-50, and 400 nM for Vorinostat. Hoechst 33342 was used as a cell marker. Scale bars denote 100 um. (D) Fold change relative to vehicle control for several compounds that promote satellite cell expansion.
# Satellite cells were isolated from intact limb muscle and prepared for fluorescence activated cell sorting (FACS) as described previously (Rocheteau et al., 2012). FACS was performed at Harvard University at the Bauer Flow Cytometry Core Facility on a Beckman Coulter MoFlo Legacy (Beckman Coulter). Satellite cells were sorted into Eppendorf tubes, and plated onto 96 well plates by hand (Greiner). Plates were pre-coated at 37° C. for 4 hours with […] laminin diluted in PBS. Sorted cells were cultured in StemSpan SFEM II basal medium (Stem Cell Technologies) supplemented with 0.05 ng/mL basic fibroblast growth factor (bFGF, Life Technologies). Wells for the positive control were treated with 600 nM Jak3 inhibitor IV (EMD Millipore). For screening and dose response follow up, cells were plated at 150 cells/well.
# The day cells were plated was considered Day 0. Compounds were added on Day 1. For screening and dose response follow up, cells were incubated without media change until Day 4 and plates were prepared for imaging. […]
compound,measurement,setting,value
"CC(C)(C)c1cc(NC(=O)Nc2ccc(-c3cn4c(n3)sc3cc(OCCN5CCOCC5)ccc34)cc2)no1 [AC220, quizartinib]",expansion of human satellite cells (in words),human satellite cells,ability to expand human satellite cells at low doses
CCCC1O[C@@H]2C[C@H]3[C@@H]4CCC5=CC(=O)C=C[C@]5(C)[C@H]4[C@@H](O)C[C@]3(C)[C@]2(C(=O)CO)O1 (stereo partly shown) [Budesonide],additive or synergistic action with bFGF,satellite cells (SMPs) [1],no additional increase
same,activity on in vitro satellite cell proliferation (in words),satellite cells [2],identified and validated; also recorded: proliferation levels much greater than that seen in the negative control
"C[C@]12O[C@H](C[C@]1(O)CO)n1c3ccccc3c3c4c(c5c6ccccc6n2c5c31)CNC4=O [CEP701, Lestaurtinib]",optimum concentration,[3],50 nM
same,"increase in proliferation, CEP701 and bFGF together","satellite cells (SMPs) [1]; 0.05 μM CEP701 + 5 ng/mL bFGF daily, 300 cells/well, fixed four days after plating (FIG. 14)",8 fold
same,effect on fibroblast proliferation,primary fibroblasts,no effect
same,proliferation of the input SMP cells (level),"satellite cells [2]; retest, DMSO-treated cells 1±0.3 in both trials",~4.7±1.4
OC[C@H]1O[C@@H](n2cnc3c(NC4CCCC4)ncnc32)[C@H](O)[C@@H]1O [N6-cyclopentyladenosine],myoblast differentiation,myoblasts,drive myoblast differentiation
same,"increase in the cell number, combination of CPA and bFGF",satellite cells (SMPs) [1]; CPA 30 μM + bFGF (FIG. 28),fifteen-fold
same,additive or synergistic action with bFGF,satellite cells (SMPs) [1],seen to synergize with bFGF
same,ability of treated cells to differentiate and fuse to form myotubes,satellite cells (SMPs) [4],able to form myotubes
same,activity on in vitro satellite cell proliferation (in words),satellite cells [2],identified and validated; also recorded: increase in vitro satellite cell proliferation
same,activity on in vitro satellite cell proliferation (in words),satellite cells [2]; listed as CPA,proliferation levels much greater than that seen in the negative control
same,additive effect with TGF-beta inhibitor (Alk5 inhibitor II),"satellite cells [5]; compound plus Alk5 inhibitor II (FIGS. 21, 32)",slight increase in proliferation
COc1nccc(-c2c(-c3ccc(F)cc3)ncn2C2CCC(O)CC2)n1 (stereo not shown) [SB23906],optimal treatment concentration determined in dose response,[6],5 µM
N#C/C(=C\c1ccc(O)c(O)c1)C(=O)NCc1ccccc1 [Tyr AG490],myoblast differentiation,myoblasts,drive myoblast differentiation
"O=C(CCCCCCC(=O)Nc1ccccc1)NO [Vorinostat, suberoylanilide hydroxamic acid]",optimal treatment concentration determined in dose response,[6],0.4 µM
CCOc1cc(N2CCC(O)CC2)ccc1Nc1ncc2c(n1)N(C)c1ccccc1C(=O)N2C [XMD8-92],optimal treatment concentration determined in dose response,[6],3 µM
COc1cc(C(=O)N2CCC(N3CCN(C)CC3)CC2)ccc1Nc1ncc2c(n1)N(C)c1ccccc1C(=O)N2C [XMD11-50],optimal treatment concentration determined in dose response,[6],0.8 µM
Alk5 inhibitor II,proliferation on addition of Alk5 inhibitor II to the cultures,satellite cells [5]; Alk5 inhibitor II alone,slight increase in proliferation
"bFGF: basic fibroblast growth factor, positive control","increase in the cell number, bFGF alone",satellite cells (SMPs) [1]; FIG. 28,six-fold
same,ability of treated cells to differentiate and fuse to form myotubes,satellite cells (SMPs) [4],able to form large myotubes
same,number of cells per well at the end of the assay,"satellite cells [2]; 50 cells/well plated, Day 4, DMSO-treated wells around 50 cells",150-250 cells
same,"level of proliferation, fold change over the DMSO vehicle control","satellite cells [2]; FIG. 3A, positive control, DMSO 1±0.3",3.4±0.9 fold change
same,"level of proliferation, fold change over the DMSO vehicle control (normalized value)","satellite cells [2]; FIG. 3B, re-supplied compounds dose response, 50 cells/well, positive control, DMSO 1±0.4",5.6±1.7 fold change

# Source: US11963964B2, “Small molecules for mouse satellite cell proliferation” (President and Fellows of Harvard College, priority 2011, dated 2024)
